Results reported in patent US20140314890A1, “COMBINATION ANTI-CANCER THERAPY” (THE FLORIDA INTERNATIONAL UNIVERSITY BOARD OF TRUSTEES, priority 2011, published 2014).

Tests used:
Format in all cases: cell-based
caspase-9 = experiment: Caspase-9 activity, colorimetric assay of cell lysates (Ac-LEHD-pNA); conditions: LNCaP; C-PC 250 μg/mL, topotecan 10 μM; 16 hours
Method: (§1) LNCaP cells were treated with different concentrations of the C-PC (250 μg mL−1) and topotecan (10 μM) for 16 hours. After the incubation time, cells were harvested, washed and resuspended in cell lysis buffer and kept on ice for 10 minutes. The cell lysate was centrifuged at 5000 rpm for 5 minutes, the supernatant was assayed for protein concentration and further diluted with the lysis buffer to adjust the protein concentration. Equal amounts of protein from each sample was added to 96-well plates and mixed with the 2×reaction buffer [100 mM HEPES (pH 7.4), 200 mM NaCl, 20 mM dithiotheritol, 2 mM EDTA, and 0.2% chaps] and 2 mM of the respective substrates acetyl-Leu-Glu-His-Asp-p-nitroaniline (Ac-LEHD-pNA) and acetyl-Asp-Glu-Val-Asp-p-nitroaniline (Ac-DEVD-pNA). For measuring the specific activity of caspase-9 and caspase-3, the respective inhibitors Ac-LEHD-CHO and Ac-DEVD-CHO were used. Release of the cleaved p-nitroanilide from the tetrapeptide substrates was measured using the 96-well microplate reader at 405 nm.

LNCaP cells [1] = experiment: Cell death / cell viability by trypan blue dye exclusion test; conditions: for inhibition of cell growth (percentage of live cells, FIG. 1): LNCaP, C-PC 250 and 500 μg/mL or topotecan 1 μM and 10 μM individually, 16 hours
Method: (§2) The LNCaP cells were grown as a complete monolayer in RPMI-1640 growth medium supplemented with 10% fetal bovine serum, 10,000 U/mL of penicillin, 10,000 μg/mL of streptomycin, 1% (+)-L-glutamine, and 1% amphotericin-B. The cells were grown at 37° C. under a humidified air/CO2 (19:1) atmosphere. All experiments were conducted using cells in logarithmic phase. In each well of a six-well plate, approximately 1×10^6 cells per well were grown for 24 hours.
(§3) To determine the cell viability, monolayer culture of LNCaP cells were treated with different concentrations of the C-PC (250 and 500 μg mL−1) and topotecan (1 μM and 10 μM) individually and in combination of C-PC (250 and 500 μg mL−1) with topotecan at 1 μM for 16 hours. After the incubation period, cell death was determined by using trypan blue dye exclusion test. To determine the levels of ROS generation, the cells cultured in 6-well plate were incubated with different concentrations of C-PC and topotecan as described above for 16 hours. At the end of incubation period, levels of ROS generated were measured using the NBT reduction assay.

caspase-3 = experiment: Caspase-3 activity, colorimetric assay of cell lysates (Ac-DEVD-pNA); conditions: LNCaP; C-PC 250 μg/mL, topotecan 10 μM; 16 hours
Method: as §1

LNCaP cells [2] = experiment: ROS generation by NBT reduction assay; conditions: 16 hours
Method: as §2, §3

Compound | caspase-9 activity compared to untreated control cells (FIG. 4) (caspase-9) | inhibition of cell growth (percentage of live cells, FIG. 1) (LNCaP cells [1]) | caspase-3 activity compared to untreated control cells (FIG. 4) (caspase-3) | rate of ROS generation (FIG. 2) (LNCaP cells [2]) | antiproliferative activity (LNCaP cells [1]; prostate cancer cell line LNCaP, preliminary work)
CC[C@@]1(O)C(=O)OCc2c1cc1n(c2=O)Cc2cc3c(CN(C)C)c(O)ccc3nc2-1 [topotecan, reference compound] | increased | significant inhibition of cell growth | increased | significant increase in the rate of ROS generation | 
phycocyanin | increased | significant inhibition of cell growth | increased | significant increase in the rate of ROS generation | had antiproliferative activity
